Laboratory results reported in a melting point compilation (Tetko et al.; mined from patent text by program, amines drawn as free bases though some values may be those of a salt).

SMILES | melting point [°C]
O=C1OC2(CCN(C(=O)Nc3cnc(-c4ccccc4)cn3)CC2)c2ccccc21 | 206
CC(C)CCCC(C)NC(=O)Oc1ccc(Oc2ccc(Cl)cc2)cc1 (stereo not given) | 46 to 48
COc1ccc(-c2nc(S(C)(=O)=O)ncc2C(=O)N2CCOCC2)cc1OC | 77
O=C(NC1(O)CC1)c1ccccc1 | 153 to 155
Cc1c(C#N)ncn1-c1cccc(Cl)c1 | 117 to 118
COc1cc(OC)cc(C(=CC#N)c2ccc(OC)c(F)c2)c1 | 91 to 93
CC(=O)SCC(=Cc1cccc2ccccc12)C(=O)NCCC(=O)OCc1ccccc1 | 78
Nc1nc2c(ncn2COC(COCc2ccccc2)COCc2ccccc2)c(=O)[nH]1 | 170 to 177
COc1c(-c2cc3c(s2)CCC(O)C3)ccc2c(=O)c(C(=O)O)cn(C3CC3)c12 (stereo not given) | 232 to 233
CC(C)C[C@H](NC(=O)CCS)C(=O)O | 131 to 132
C=C(C)C[C@H]1CC(C)=CCN1c1ccccc1 | 55 to 57
Fc1cccc(F)c1C1=NC(C2(OC(F)(F)F)C=CC(c3ccccc3)=CC2)CS1 (stereo not given) | 85 to 86
CCC1(Cl)C(=O)c2c(cc(OCC(=O)O)c(Cl)c2Cl)C1c1ccccc1 (stereo not given) | 190 to 192
CCCCCCCCCCCCCCc1ccc(OCC(CO)OC)cc1 (stereo not given) | 43 to 45
N#Cc1cnc(N)cc1N | 197 to 198
C=C=CN(C(=O)c1ccco1)c1c(C)cccc1C | 138 to 141
CCCOc1ccc(S)cc1C(N)=O | 108 to 111
O=C1c2ccccc2-c2c1c1ccccc1c(=O)n2CCCCCCCCCCCNS(=O)(=O)c1ccccc1 | 170 to 172
CN(Cc1ccccc1)c1nc(N2CCC(NCC(c3ccccc3)c3ccccc3)CC2)nc2c(N3CCOCC3)ncnc12 | 106 to 108
CCCCCCCCc1cccc(N2CC(=O)NC(=O)N2)c1 | 169 to 171
O=C(NCc1ccccc1)c1ccnc(NC(=O)c2ccccc2)c1 | 174 to 176
Cc1c(O)cc2c(c1Br)[C@H](O)[C@H](N1CCC(O)(c3ccc(F)cc3)CC1)CO2 (relative stereo) | 196
Clc1ccccc1C1(c2ccc(-c3ccccc3)cc2)CO1 (stereo not given) | 70
COC(=O)CCSc1scnc1C(=O)O | 112 to 116
CCCSc1sc(C(=O)N2CCCC2)c2c1C(=O)CC(C)(C)C2 | 117 to 119

SMILES | melting point [°C]
CC(N)C(=O)N1CC(=O)N(CC(N)=O)C1(C)C (stereo not given) | 196 to 197
COC(=O)/C=C/Oc1ccc(Oc2ccc(F)cc2F)c(NS(C)(=O)=O)c1 | 98.5 to 98.9
CCCCOC(=O)[C@H](Cc1ccc(O)cc1)NC(=O)C1(NC(=O)C2(S)CCCC2)CCCC1 | 106 to 107
CNc1ccc2sc3ccccc3c(=O)c2c1 | 172 to 175
COc1ccc(C=C(C)[N+](=O)[O-])c(OC)c1 | 80 to 81
COc1cc2c(cc1OC)C(c1cccc(Cl)c1)=NN=C(C)C2 | 166 to 168
CC(NC(=O)OC(C#N)c1cccc(Oc2ccccc2)c1)c1cccc2ccccc12 (stereo not given) | 122
O=C(CN1CCCC1)Nc1ccc2c(c1)C(=O)c1cc(NC(=O)CN3CCCC3)ccc1C2=O | 201
O=C(Nc1cccc(S(=O)(=O)N2CCOCC2)c1)c1cnn2c(C(F)F)cc(-c3ccc(Cl)c(Cl)c3)nc12 | 231
COc1ccc(C(C)c2cc3c(cc2OC)OCO3)cc1 (stereo not given) | 93 to 94
CCOC(=O)C1=C(C)N(C(=O)OCC)C(C)=C(C(=O)OCC)C1c1ccccc1C(F)(F)F | 56 to 58
CC(=O)c1c(C)cc(NC(C)(C)C)nc1NC(C)(C)C | 127 to 128
Cc1cc(-n2ccnc2)c2cccc(OCc3c(Cl)ccc(S(=O)(=O)N4CCC[C@H]4C(=O)NCCCCCN(C)C)c3Cl)c2n1 | 85
O=C(Nc1ccn(CC(O)CF)c(=O)n1)c1ccccc1 (racemic) | 205
Clc1nc(-n2cnc(-c3ccccc3)c2-c2ccccc2)c2[nH]cnc2n1 | 278
CNC(=O)O/N=C(/SC)C(F)(F)F | 83 to 85
c1cc(-c2ccc(-c3cn([C@H]4CN5CCC4CC5)nn3)s2)ccc1CN1CCCCC1 | 230
CCCCCC(COc1ccc(C(=O)O)cc1)c1ccc2c(c1)OCCC2(C)C (stereo not given) | 91.5 to 93.3
C[Si](C)(C)C#Cc1ccc2c(c1)C(c1ccccc1F)=NCc1c(C(=O)OCC(F)(F)F)ncn1-2 | 220 to 221
Nc1nc(N)c2cc(Cc3ccccc3Cl)ccc2n1 | 220 to 222
O=C(O)C=Cc1ccc2cc[nH]c2c1 | 215 to 217
COc1ccc(-c2cc3ccccc3[nH]2)cc1NC(N)=S | 188 to 191
CC(C)(Oc1ccc(OCc2nc(-c3ccc(C(F)(F)F)cc3)no2)cc1)C(=O)O | 164
CC(=O)OCCOc1ccc(OCCOC(C)=O)c(N)c1 | 67.5 to 69.5
NNC(=S)c1ccccc1 | 66 to 68
